Reference: the supplement of paper PMC10307832

Columns and labels:
Experiment in all cases: relative viability (nuclei count vs DMSO), 5 days (fraction); higher = more cells survive
Sunitinib = compound: CCN(CC)CCNC(=O)c1c(C)[nH]c(/C=C2\C(=O)Nc3ccc(F)cc32)c1C [Sunitinib]
How it was run: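 Vehicle-anchored 1536-well plates of lung cancer cell lines, held overnight at 37 °C, were pinned with five library-drug doses (not always all listed) spaced by √10. No medium change followed over the next 5 days, after which the cells were fixed, permeabilised and Hoechst-stained together and imaged at 4×. Nuclei were counted with MetaXpress, and viability is treated-well nuclei over vehicle-well nuclei, taken as a median across plates. Plates passed with control CV below 25% and at least one doubling.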

Sunitinib + Tozasertib = compound: CCN(CC)CCNC(=O)c1c(C)[nH]c(/C=C2\C(=O)Nc3ccc(F)cc32)c1C [Sunitinib] + Cc1cc(Nc2cc(N3CCN(C)CC3)nc(Sc3ccc(NC(=O)C4CC4)cc3)n2)n[nH]1 [Tozasertib] (partner 0.1 µM)
How it was run: (§1)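 After 5 days of treatment, lung cancer cells in 1536-well plates were fixed and stained in a single step (final 0.05% Triton X-100, 1% formaldehyde, 1 ug/ml Hoechst) and their nuclei counted on 4× images. Treatment had been applied by pin tool the day after seeding as one drug alone or as a fixed anchor-drug dose with five library-drug doses (not always all listed) in √10 steps. Relative viability is the nuclei count of treated wells divided by that of vehicle wells, and values are medians of duplicate plates.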

Sunitinib + Navitoclax = compound: CCN(CC)CCNC(=O)c1c(C)[nH]c(/C=C2\C(=O)Nc3ccc(F)cc32)c1C [Sunitinib] + CC1(C)CCC(c2ccc(Cl)cc2)=C(CN2CCN(c3ccc(C(=O)NS(=O)(=O)c4ccc(N[C@H](CCN5CCOCC5)CSc5ccccc5)c(S(=O)(=O)C(F)(F)F)c4)cc3)CC2)C1 [Navitoclax] (partner 0.5 µM)
How it was run: as §1

Sunitinib + Phenformin = compound: CCN(CC)CCNC(=O)c1c(C)[nH]c(/C=C2\C(=O)Nc3ccc(F)cc32)c1C [Sunitinib] + N=C(N)NC(=N)NCCc1ccccc1 [Phenformin] (partner 250 µM)
How it was run: as §1

Cell Line	relative viability (Sunitinib; 0.02 µM)	relative viability (Sunitinib; 0.06325 µM)	relative viability (Sunitinib; 0.2 µM)	relative viability (Sunitinib; 0.6325 µM)	relative viability (Sunitinib; 2 µM)	relative viability (Sunitinib + Tozasertib; first compound 0.02 µM)	relative viability (Sunitinib + Tozasertib; first compound 0.06325 µM)	relative viability (Sunitinib + Tozasertib; first compound 0.2 µM)	relative viability (Sunitinib + Tozasertib; first compound 2 µM)	relative viability (Sunitinib + Navitoclax; first compound 0.02 µM)	relative viability (Sunitinib + Navitoclax; first compound 0.06325 µM)	relative viability (Sunitinib + Navitoclax; first compound 0.2 µM)	relative viability (Sunitinib + Navitoclax; first compound 0.6325 µM)	relative viability (Sunitinib + Navitoclax; first compound 2 µM)	relative viability (Sunitinib + Phenformin; first compound 0.02 µM)	relative viability (Sunitinib + Phenformin; first compound 0.06325 µM)	relative viability (Sunitinib + Phenformin; first compound 0.2 µM)	relative viability (Sunitinib + Phenformin; first compound 0.6325 µM)	relative viability (Sunitinib + Phenformin; first compound 2 µM)	relative viability (Sunitinib + Tozasertib; first compound 0.6325 µM)
201T	0.938	0.999	1.02	0.989	0.987	0.918	0.948	1.1	0.88	1.19	1.18	1.21	1.18	1.2	0.444	0.468	0.496	0.468	0.434	–
A549	0.945	1.1	1.23	1.06	0.972	–	–	–	–	1.16	1.3	1.36	–	1.07	0.166	0.214	0.148	0.126	0.155	–
A-427	0.981	–	1.05	1.07	1.06	0.225	0.233	0.219	0.194	0.954	0.987	0.999	1	1.12	0.263	0.383	0.315	0.301	0.279	0.213
ABC-1	1.03	1.23	1.06	1.02	1.01	0.187	0.189	0.172	0.154	–	–	–	–	–	0.218	0.254	0.218	0.242	0.225	0.18
BEN	0.85	0.97	0.988	0.973	–	0.526	0.426	0.576	0.466	0.0567	0.0707	0.072	0.0591	0.0799	0.277	0.266	0.267	0.275	0.265	0.61
CAL-12T	0.908	1.03	1.11	1.13	1.03	0.324	0.302	0.314	0.213	1.18	1.32	1.44	1.36	1.36	0.515	0.648	0.591	0.702	0.518	0.324
COR-L23	0.951	1.08	1.15	1.2	1.1	0.19	0.217	0.196	0.176	0.966	1.08	1.04	1.21	1.15	0.421	0.482	0.469	0.443	0.461	0.215
Calu-6	0.954	1.04	1.09	1.06	1.07	–	–	–	–	0.896	0.772	0.923	0.972	0.914	–	–	–	–	–	–
EBC-1	0.965	–	1.12	1.09	1.01	–	–	–	–	0.467	0.472	0.417	0.557	0.626	–	–	–	–	–	–
IA-LM	0.951	0.953	1.05	1.1	1.07	–	–	–	–	0.767	0.912	0.929	0.872	0.814	–	–	–	–	–	–
LCLC-103H	0.905	1.07	1.12	0.903	1.03	0.459	0.44	0.478	0.514	–	–	–	–	–	0.354	0.343	0.352	0.365	0.33	0.44
NCI-H358	0.875	0.97	1.1	0.897	0.67	0.114	0.0928	0.123	0.109	–	–	–	–	–	0.322	0.447	0.373	0.348	0.29	0.103
NCI-H522	0.927	1.12	0.996	0.962	0.999	0.6	0.568	0.499	0.682	–	–	–	–	–	0.602	0.79	0.659	0.673	0.756	0.521
NCI-H650	0.906	1.1	1.01	1.03	1.08	0.697	0.831	0.771	0.745	–	–	–	–	–	0.444	0.46	0.428	0.49	0.465	0.801
NCI-H661	0.977	–	1	1.05	1.03	0.357	0.379	0.356	0.401	–	–	–	–	–	0.263	0.31	0.27	0.264	0.265	0.363
NCI-H1299	0.99	1.07	1.04	1.04	1.08	–	–	–	–	1.03	1.11	1.05	1.03	1.09	–	–	–	–	–	–
NCI-H1563	0.955	1.04	0.969	0.939	0.967	–	–	–	–	–	–	–	–	–	0.661	0.707	0.738	–	0.706	–
NCI-H1648	0.767	–	1.15	1.13	1.17	–	0.477	0.482	0.667	–	–	–	–	–	–	–	–	–	–	0.596
NCI-H1703	0.616	0.257	0.315	0.216	0.242	–	–	–	–	0.621	0.264	0.289	0.254	0.184	–	–	–	–	–	–
NCI-H1792	0.802	1.11	1.18	0.924	1.02	–	–	–	–	0.664	–	0.777	0.537	0.66	–	0.381	0.351	0.418	0.31	–
NCI-H2342	0.96	1.09	1.03	1.01	1.11	0.396	0.616	0.539	0.453	–	–	–	–	–	0.523	0.571	0.62	0.542	0.727	0.56
